Columns and labels:
[1] = Pharmacokinetic analysis, brain and plasma concentration after single oral administration; format: in vivo; conditions: normal mice
Procedure: (§1) Trametinib treatment: Trametinib (Medchemexpress, Monmouth Junction, N.J.) was micronized and suspended in the vehicle containing 5% mannitol, 1.5% hydroxypropyl methylcellulose and 0.2% sodium lauryl sulfate. For pharmacokinetic analysis, 0.05, 0.2 and 0.8 mg/kg of trametinib were orally administered to 7-week-old normal mice (ICR, n=5 per group) as a single administration. […] For studies on the change in pERK expression in normal mice and whole cell RNA sequencing study, 0.1 mg/kg/day of trametinib (in 4% DMSO+96% corn oil) was orally administered to 6-week old C57BL/6 mice (n=3 per group). Mice were sacrificed after 1, 2, 3, or 4 weeks of administration. 5XFAD mice (male, n=7˜10 per group) were divided into vehicle and trametinib treated groups. 12-month old mice received vehicle or 0.1 mg/kg of trametinib for 1 month by oral gavage once a day (These mice are referred to as “13-month old 5XFAD mice” in the Examples). […] Blood was obtained after completion of treatment.

5XFAD mice = experiment: Immunofluorescence staining of Map2, Tau and swollen axons in cortex layer V; format: in vivo
Procedure: as §1
Brains were dissected and analyzed by immunohistochemistry. For paraffin sections, brain hemispheres were embedded sagittally in paraffin and prepared into sections of […] slices. […] The sections were counterstained with DAPI. […] NeuN-positive and active caspase 3-positive cells from cortex layer V were counted using Icy micromanager program (Institut Pasteur, Paris, France).

[2] = system: NSCs from adult Tg2576 mice; experiment: Immunofluorescence staining of NSCs from adult Tg2576 mice; format: cell-based; conditions: 100 nM, 48 hrs
Procedure: Cell culture: SH-SY5Y neuroblastoma cells were cultured at 37° C., 5% CO2., in Dulbecco's Modified Eagle Medium/Ham's F-12 nutrient mixture (DMEM/F12) (Invitrogen, Carlsbad, Calif.) supplemented with 10% heat-inactivated fetal bovine serum containing 100 units/ml penicillin, 100 μg/ml streptomycin. Primary cortical neuron cultures were derived from embryo day 18 (E18) from ICR mice. The dissociated cells were plated on glass cover slips coated with poly-D-lysine in Neurobasal medium supplemented with 2% B27 (Invitrogen), 100 units/ml penicillin, 100 μg/ml streptomycin, and 2 mM L-glutamine. Primary NSCs from normal mice were isolated from the subventricular zone (SVZ) of 8 week-old C57BL/6 mice brain. NSCs from adult Tg2576 mice brain were obtained from Seoul National University Hospital. The neurospheres were cultured as previously described (M. Y. Kim, B. S. Moon, K. Y. Choi, Isolation and maintenance of cortical neural progenitor cells in vitro. Methods Mol Biol 1018, 3-10 (2013)). For neurosphere culture from normal mice, the cells were dissociated from brain tissue and grown in N2 medium in 25 cm^2 flasks (SPL, Gyeonggi-do, Korea) in suspension. bFGF (20 ng/ml, Peprotech, Princeton, N.J.) and human EGF (20 ng/ml, Peprotech) were added to the media to allow the cells to form neurospheres. For analyses, NSCs were cultured as a monolayer. For differentiation of NSCs, the neurospheres were dissociated with TrypLE (Invitrogen), plated on 15 μg/ml poly-L-ornithine-(Sigma-Aldrich, St. Louis, Mo.) and 10 μg/ml fibronectin (Gibco)-coated plates, and cultured in bFGF- and EGF-depleted N2 medium for 2 days. For neurosphere culture from Tg2576 mice, the cells were grown in DMEM/F12 supplemented with B27 supplements in 75 cm^2 flasks (SPL) in suspension. bFGF (10 ng/ml) and human EGF (10 ng/ml) were added to the media to allow the cells to form neurospheres. For inducing differentiation and AP expression, the neurospheres were dissociated with pipetting, plated on 15 μg/ml poly-L-ornithine- and 10 μg/ml fibronectin (Gibco)-coated plates, and cultured in bFGF- and EGF-depleted medium for 2 days.
Immunocytochemistry: SH-SY5Y cells or adult NSCs were placed on glass coverslips coated with poly-L-ornithine/laminin or poly-D-lysine, respectively. After washing three times with PBS for 5 min, cells were fixed in 10% formalin for 15 min at room temperature. The cells were then washed with PBS and permeabilized in 0.1% Triton X-100 for 2 min. Cells were placed in blocking solution containing 5% BSA in PBS for 1 h at room temperature and incubated with anti-active caspase 3 (cell signaling), anti-Aβ (thermo), anti-Tau (Cell signaling), anti-LC3 (Cell signaling) and anti-LAMP1 (Abcam) in blocking buffer for 2 h at room temperature. After washing, cells were incubated with goat anti-rabbit antibody conjugated with Alexa Fluor 488 (Thermo) and/or goat anti-rat antibody conjugated with Alexa Fluor 555 (Thermo) overnight. After washing, cells were incubated with 4′,6-diamidino-2-phenylindole (DAPI) for 5 min. Coverslips were mounted using mounting medium (Biomeda, Foster City, Calif.) and visualized by confocal microscopy using a LSM700 microscope (Carl Zeiss). The percentage of coefficient was calculated using the pixels above threshold of fluorescence intensities. […] The fluorescence intensity was observed under a confocal microscopy using a LSM700 microscope (Carl Zeiss). The number of LysoTracker puncta was analyzed with Icy software.

CC(=O)Nc1cccc(-n2c(=O)n(C3CC3)c(=O)c3c(Nc4ccc(I)cc4F)n(C)c(=O)c(C)c32)c1 [trametinib]
Kp ([1]; ICR, mouse, brain and plasma, 0.8 mg/kg, highest dose group, read-out: brain/plasma exposure ratio (AUC)): 0.477 | penetration of the blood-brain barrier (BBB) [1]: confirmed to penetrate the blood-brain barrier (BBB) | bulb-like swollen axons (5XFAD mice; 5XFAD mice, compared to vehicle-administered group): significantly reduced | dendritic and axonal lengths (Map2, Tau) (5XFAD mice; cortex of 8-month-old and 13-month-old 5XFAD mice): recovery of dendritic and axonal lengths | active caspase 3 [2]: reduced active caspase 3 | autophagosome-lysosome fusions in axon-like elongated elements and soma [2]: markedly increased | cells with bipolar morphology with elongated neurites [2]: marked increase | differentiation of NSCs into neuron-like cells [2]: strongly induced differentiation of NSCs into neuron-like cells | expression of autophagosomes and lysosomes (LC3 and LAMP1 staining) [2]: markedly increased
